Results reported in US6608085B1, “4-quinolinemethanol derivatives as purine receptor antagonists (II)” (Vernalis Research Limited, priority 1998, dated 2003).
Where a name gives a salt, the structure may show the parent alone.

Tested on: not given
Assay: not given
Conditions: not given

melting point	Compound
129 to 130 °C	OC(CN1CCOCC1)c1cc(C(F)(F)F)nc2c(C(F)(F)F)cccc12 (stereo not drawn) [Example 18, α-Morpholinomethyl-2,8-bis(trifluoromethyl)-4-quinolinemethanol]
230 °C (dec.)	O[C@H](c1cc(C(F)(F)F)nc2c(C(F)(F)F)cccc12)[C@@H]1CCCN1 (as salt: hydrochloride) [Example 42, (11R, 2′S)-α-(2-pyrrolidinyl)-2,8-bis(trifuoromethyl)-4-quinolinemethanol Hydrochloride]
246 °C (dec.)	O[C@@H](c1cc(C(F)(F)F)nc2c(C(F)(F)F)cccc12)[C@@H]1CCCN1 (as salt: hydrochloride) [Example 45, (11S, 2′S)-α-(2-Pyrrolidinyl)-2,8-bis(trifluoromethyl)-4-quinolinemethanol Hydrochloride]
129.5 °C	OC(CN1CCCCC1)c1cc(C(F)(F)F)nc2c(C(F)(F)F)cccc12 (stereo not drawn) [Example 20, α-Piperidinomethyl-2,8-bis(trifluoromethyl)-4-quinolinemethanol]

Further lines, the compound ahead of its results:

Compound	melting point
Cc1cccc2c([C@@H](O)[C@@H]3CCCCN3)cc(O)nc12 (relative stereo)	225 °C (dec.)
OC1(c2cc(C(F)(F)F)nc3c(C(F)(F)F)cccc23)CNC1 [Example 31, 3-(2,8-Bis(Trifluoromethyl)-4-quinolinyl)-3-azetidinol]	201 °C (dec.)
Nc1cc([C@@H](O)[C@@H]2CCCCN2)c2ccccc2n1 (relative stereo) (as salt: salt)	225 °C (dec.)
COC(CNCc1ccccc1)c1cc(C(F)(F)F)nc2c(C(F)(F)F)cccc12 (stereo not drawn) (as salt: hydrochloride) [Example 30, N-Benzyl-β-methoxy-2,8-bis(trifuoromethyl)-4-quinolineethanamine Hydrochloride]	232 to 233 °C

Tested on: haloperidol-induced deficits in locomotor activity in mice
Assay: Haloperidol-induced hypolocomotion model
Format: in vivo
Conditions: 10 mg/kg intraperitoneally, haloperidol 0.2 mg/kg
Description: This approach is also considered a valid method for screening drugs with potential antiparkinsonian effects. Thus, the ability of novel adenosine antagonists to block haloperidol-induced deficits in locomotor activity in mice can be used to assess both in vivo and potential antiparkinsonian efficacy.
Female TO mice (25-30 g) obtained from TUCK, UK, are used for all experiments. Animals are housed in groups of 8 [cage size—40 (width)×40 (length)×20 (height)cm] under 12 hr light/dark cycle (lights on 08:00 hr), in a temperature (20±2° C.) and humidity (55±15%) controlled environment. Animals have free access to food and water, and are allowed at least 7 days to acclimatize after delivery before experimental use.
Liquid injectable haloperidol (1 ml Serenance ampoules from Baker Norton, Harlow, Essex, each containing haloperidol BP 5 mg, batch #P424) are diluted to a final concentration of 0.02 mg/ml using saline. Novel test compounds are typically prepared as aqueous suspensions in 8% Tween. All compounds are administered intraperitoneally in a volume of 10 ml/kg.
1.5 hours before testing, mice are administered 0.2 mg/kg haloperidol, a dose that reduces baseline locomotor activity by at least 50%. […] Horizontal locomotor activity is determined by placing the cages within a frame containing a 3×6 array of photocells linked to a computer, which tabulates beam breaks. […]

Compound	reversal of haloperidol-induced hypolocomotion
O[C@@H](c1cc(C(F)(F)F)nc2ccccc12)[C@H]1CCCCN1 (relative stereo) [Example 39, (11S*, 2′R*)-α-(2-Piperidinyl)-2-trifluoromethyl-4-quinolinemethanol (Racemic)]	significantly reversed

Molecular target: human adenosine A2A receptors (Homo sapiens, UniProt P29274)
Sequence (P29274 whole entry): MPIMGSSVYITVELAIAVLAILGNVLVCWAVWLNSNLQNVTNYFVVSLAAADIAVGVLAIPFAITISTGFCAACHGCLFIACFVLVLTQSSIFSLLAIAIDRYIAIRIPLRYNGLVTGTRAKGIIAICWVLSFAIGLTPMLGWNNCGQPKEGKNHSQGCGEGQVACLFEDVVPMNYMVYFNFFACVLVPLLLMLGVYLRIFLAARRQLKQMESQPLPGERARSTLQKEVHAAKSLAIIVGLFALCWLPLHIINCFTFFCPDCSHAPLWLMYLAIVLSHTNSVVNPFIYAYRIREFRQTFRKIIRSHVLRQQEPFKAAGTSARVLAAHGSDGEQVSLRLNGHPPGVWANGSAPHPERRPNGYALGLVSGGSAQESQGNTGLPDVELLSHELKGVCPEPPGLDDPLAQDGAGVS
Assay: Binding affinities at hA2A receptors, displacement of [3H]-CGS 21680
Conditions: displacement of radioligand [3H]-CGS 21680, in vitro

Ki [nM]	Compound
1780	O=C1CO[C@H](c2cc(C(F)(F)F)nc3c(C(F)(F)F)cccc23)[C@@H]2CCCCN12 [Example 14, (1R, 9aS)-1,3,4,6,7,8,9,9a-Octahydro-1-(2,8-bis(trifluoromethyl)-4-quinolinyl)-pyrido[2,1-c][1,4]oxazine-4-one]
419	CO[C@H](c1cc(C(F)(F)F)nc2c(C(F)(F)F)cccc12)[C@@H]1CCCCN1C [Example 8, (11R, 2′S)-4-(1-Methoxy-1-(1-methyl-2-piperidinyl)methyl)-2,8-bis(trifluoromethyl)quinoline]
63	FC(F)(F)c1cc([C@H]2OCN3CCCC[C@@H]23)c2cccc(C(F)(F)F)c2n1 [Example 11, (1R, 8aS)-1,5,6,7,8,8a-Hexahydro-1-(2,8-bis(trifluoromethyl)-4-quinolinyl)-3H-oxazolo[3,4-a]pyridine]
906	O[C@H](c1cc(C(F)(F)F)nc2c(C(F)(F)F)cccc12)[C@@H]1CCCCN1CCc1ccccc1 [Example 38, (11S, 2′R)-α-(1-Phenethyl-2-piperidinyl)-2,8-bis(trifluoromethyl)-4-quinolinemethanol]
182	O[C@H](c1cc(C(F)(F)F)nc2c(C(F)(F)F)cccc12)[C@@H]1CCCCN1Cc1ccccc1 [Example 9, (11R, 2′S)-α-(1-Benzyl-2-piperidinyl)-2,8-bis(trifluoromethyl)-4-quinolinemethanol]
462	O[C@H](c1cc(C(F)(F)F)nc2c(C(F)(F)F)cccc12)[C@@H]1CCCN1 [Example 42, (11R, 2′S)-α-(2-pyrrolidinyl)-2,8-bis(trifuoromethyl)-4-quinolinemethanol Hydrochloride]
1740	CC(=O)N1CCCC[C@H]1[C@H](O)c1cc(C(F)(F)F)nc2c(C(F)(F)F)cccc12 [Example 5, (11R, 2′S)-α-(1-Acetyl-2-piperidinyl)-2,8-bis(trifluoromethyl)-4-quinolinemethanol]
1170	FC(F)(F)c1cc([C@H]2OCCN3CCCC[C@@H]23)c2cccc(C(F)(F)F)c2n1 [Example 15, (1R, 9aS)-1,3,4,6,7,8,9,9a-Octahydrol-(2,8-bis(trifluoromethyl)-4-quinolinyl)-pyrido[2,1-c][1,4]oxazine]
45	CN1CCCC[C@H]1[C@H](O)c1cc(C(F)(F)F)nc2c(C(F)(F)F)cccc12 [Example 7, (11R, 2′S)-α-(1-Methyl-2-piperidinyl)-2,8-bis(trifluoromethyl)-4-quinolinemethanol]
192	FC(F)(F)c1cc([C@H]2OCN3CCCC[C@H]23)c2cccc(C(F)(F)F)c2n1 [Example 13, (1R, 8aR)-1,5,6,7,8,8a-Hexahydro-1-(2,8-bis(trifluoromethyl)-4-quinolinyl)-3H-oxazolo[3,4-a]pyridine]
1500	CNCC(O)c1cc(C(F)(F)F)nc2c(C(F)(F)F)cccc12 (stereo not drawn) [Example 22, α-Methylaminomethyl-2,8-bis(trifluoromethyl)-4-quinolinemethanol]
2060	O[C@@H](c1cc(C(F)(F)F)nc2c(C(F)(F)F)cccc12)[C@@H]1CCCN1 [Example 45, (11S, 2′S)-α-(2-Pyrrolidinyl)-2,8-bis(trifluoromethyl)-4-quinolinemethanol Hydrochloride]
226	CO[C@H](c1cc(C(F)(F)F)nc2c(C(F)(F)F)cccc12)[C@@H]1CCCCN1 [Example 32, (1′R, 2S)-2-(α-Methoxy-2,8-bis(trifluoromethyl)-4-quinolinemethyl)piperidine Hydrochloride]
2800	OC(CNC1CCC1)c1cc(C(F)(F)F)nc2c(C(F)(F)F)cccc12 (stereo not drawn) [Example 26, α-Cyclobutylaminomethyl-2,8-bis(trifluoromethyl)-4-quinolinemethanol]

Further lines, the compound ahead of its results:

Compound	Ki [nM]
O[C@@H](c1cc(C(F)(F)F)nc2ccccc12)[C@H]1CCCCN1 (racemic) [Example 39, (11S*, 2′R*)-α-(2-Piperidinyl)-2-trifluoromethyl-4-quinolinemethanol (Racemic)]	404
CC[C@H](C)[C@H](N)[C@@H](O)c1cc(C(F)(F)F)nc2c(C(F)(F)F)cccc12 [Example 40, (11S, 1′S, 2′S)-α-(1-Amino-2-methyl-1-butyl)-2,8-bis(trifluoromethyl)-4-quinolinemethanol Hydrochloride]	609
OC(CNCc1ccccc1)c1cc(C(F)(F)F)nc2c(C(F)(F)F)cccc12 (stereo not drawn) [Example 24, α-Benzylaminomethyl-2,8-bis(trifluoromethyl)-4-quinolinemethanol]	2450
CC(C)(C)OC(=O)N1CCC[C@H]1[C@H](O)c1cc(C(F)(F)F)nc2c(C(F)(F)F)cccc12 [Example 43, (11R, 2′S)-α-(1-tert-Butoxycarbonyl-2-pyrrolidinyl)-2,8-bis(trifluoromethyl)-4-quinolinemethanol]	2720
CC(C)C[C@H](N)C(O)c1cc(C(F)(F)F)nc2c(C(F)(F)F)cccc12 (mixture of isomers) [Example 34, α-(-Amino-3-methylbutyl)-2,8-bis(trifluoromethyl)-4-quinolinemethanol]	1210
OC(CNc1ccccc1)c1cc(C(F)(F)F)nc2c(C(F)(F)F)cccc12 (stereo not drawn) [Example 23, α-Phenylaminomethyl-2,8-bis(trifluoromethyl)-4-quinolinemethanol]	2730
COc1cc([C@@H](O)[C@@H]2CCCCN2)c2cccc(C)c2n1 (racemic) [Example 48, (11R*, 2′S*)-2-Methoxy-8-methyl-α-(2-piperidinyl)-4-quinolinemethanol (Racemic)]	1100
CC(C)CNCC(O)c1cc(C(F)(F)F)nc2c(C(F)(F)F)cccc12 (stereo not drawn) [Example 25, α-Isobutylaminomethyl-2,8-bis(trifluoromethyl)-4-quinolinemethanol]	1270

Tested on: Parkinsonian patients
Assay: not given
Conditions: 15 Parkinsonian patients, up to 12 weeks, 150 mg/day; cited from earlier work

Compound	mean objective disability scores
Cn1c(=O)c2[nH]cnc2n(C)c1=O [Theophylline, 1,3-dimethylxanthine]	significant improvements

Same assay, conditions: of 15 Parkinsonian patients, up to 12 weeks, 150 mg/day; cited from earlier work

Compound	patients reporting moderate or marked subjective improvement
Cn1c(=O)c2[nH]cnc2n(C)c1=O [Theophylline, 1,3-dimethylxanthine]	11

Same assay, conditions: slow release oral preparation 150 mg/day, after one week; cited from earlier work

Compound	serum theophylline levels [mg/L]
Cn1c(=O)c2[nH]cnc2n(C)c1=O [Theophylline, 1,3-dimethylxanthine]	4.44

Tested on: cataleptic responses
Assay: not given
Conditions: in vivo; cited from earlier work

Compound	anticataleptic effects of a subthreshold dose of L-DOPA plus benserazide	catalepsy induced by haloperidol and reserpine
CCCn1c(=O)c2c(nc(/C=C/c3ccc(OC)c(OC)c3)n2C)n(CCC)c1=O [KF 17837, (E)-8-(3,4-dimethoxystyryl)-1,3-dipropyl-7-methylxanthine]	potentiated	reduced

Same assay, conditions: oral administration; cited from earlier work

Compound	cataleptic responses induced by intracerebroventricular CGS 21680
CCCn1c(=O)c2c(nc(/C=C/c3ccc(OC)c(OC)c3)n2C)n(CCC)c1=O [KF 17837, (E)-8-(3,4-dimethoxystyryl)-1,3-dipropyl-7-methylxanthine]	significantly ameliorated
